The text below walks through data of paper PMC10067623, “Characterization of an Aplysia vasotocin signaling system and actions of posttranslational modifications and individual residues of the ligand on receptor activity” (Frontiers in Pharmacology, 2023).

Values joined by “and” are separate entries in the source; they are usually repeats but may differ in a detail not shown here. Identical values can stand only once. “Also recorded” adds a separate entry of the source. Like-named read-outs stand apart in the source and are kept apart here. Bridge positions count the residues as written; N and C are the ends. Peptide text beside a SMILES is read from it. * marks the point of attachment. Acm = CC(=O)NC*

Test [1] has as its target T1, apVTR1 (Aplysia californica, UniProt A0ABM1ABB6).
T1 sequence (A0ABM1ABB6 1-470): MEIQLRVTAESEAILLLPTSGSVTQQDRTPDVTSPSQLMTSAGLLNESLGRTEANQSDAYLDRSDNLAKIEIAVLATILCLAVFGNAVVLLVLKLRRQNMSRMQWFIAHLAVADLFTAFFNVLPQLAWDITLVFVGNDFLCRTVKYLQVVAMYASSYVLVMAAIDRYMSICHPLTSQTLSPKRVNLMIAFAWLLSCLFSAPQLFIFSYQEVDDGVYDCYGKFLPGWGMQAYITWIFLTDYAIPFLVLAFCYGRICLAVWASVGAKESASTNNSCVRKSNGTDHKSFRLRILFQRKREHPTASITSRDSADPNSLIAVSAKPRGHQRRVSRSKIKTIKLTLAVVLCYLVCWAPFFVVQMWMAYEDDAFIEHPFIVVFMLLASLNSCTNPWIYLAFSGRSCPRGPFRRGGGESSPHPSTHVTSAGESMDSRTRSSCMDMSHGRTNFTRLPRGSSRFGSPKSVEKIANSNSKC
The test is described as follows: cell-based. It counts as cell-based. To be noted: for activation of apVTR1 (IP1 response), in words / apVTR1 log[EC50]: CHO-K1 cells, without promiscuous Gαq; for apVTR1 log[EC50]: log[EC50] with negative sign as printed, average, n = 3.

The test system of test [2] is apVTR2. The test is described as follows: IP1 accumulation assay, apVTR2 transiently expressed in CHO-K1 cells. It counts as cell-based, Aplysia californica. To be noted: for apVTR2 log[EC50]: log[EC50] with negative sign as printed, average.
Test [3] deals with Class-A GPCR 3. The experiment in a line: IP1 accumulation assay, Class-A GPCR 3 co-transfected with promiscuous Gαq (Gα16) in CHO-K1 cells. In kind it is cell-based, Aplysia californica.
The mark [4] stands for this setting: n = 3, CHO-K1 cells, without promiscuous Gαq.
The mark [5] stands for this setting: co-transfected with promiscuous Gαq (Gα16), 10^-5 M vs 10^-10 M.
Setting [6] is: CHO-K1 cells, without promiscuous Gαq.
[7] abbreviates: CHO-K1 cells, without promiscuous Gαq, dose-response 10^-12 M to 10^-4 M, n = 3.
[8] abbreviates: co-transfected with promiscuous Gαq, 10^-5 M vs 10^-10 M (control).

As a reminder, the EC50 is the midpoint of the concentration-response curve. The low end stands for greater potency, the high end for weaker potency. Take `CC[C@H](C)[C@H](NC(=O)[C@H](Cc1ccccc1)NC(=O)[C@@H](N)CSCNC(C)=O)C(=O)N[C@@H](CCCNC(=N)N)C(=O)N[C@@H](CC(N)=O)C(=O)N[C@@H](CSCNC(C)=O)C(=O)N1CCC[C@H]1C(=O)N[C@@H](CCCCN)C(=O)NCC(N)=O` [[Cys(Acm)^1,6]apVT] (H-C(Acm)FIRNC(Acm)PKG-NH2; N-terminus and C-terminus assumed): the results for the 50% effective concentration (EC50) in test [1] (apVTR1 EC50), in test [1] (apVTR1 log[EC50]) and in test [2] were 12 µM, 12.6 µM and 47 µM, respectively. Moreover, in test [2] (setting [4]), the “apVTR2 log[EC50]” value is -4.3±0.57 M.

Regarding `CC[C@H](C)[C@@H]1NC(=O)[C@H](Cc2ccccc2)NC(=O)[C@@H](N)CSSC[C@@H](C(=O)N2CCC[C@H]2C(=O)N[C@@H](CCCCN)C(=O)N[C@@H](C)C(N)=O)NC(=O)[C@H](CC(N)=O)NC(=O)[C@H](CCCNC(=N)N)NC1=O` [[Ala^9]apVT] (H-CFIRNCPKA-NH2; disulfide 1-6), the 50% effective concentration (EC50) in test [1] (apVTR1 EC50) and in test [1] (apVTR1 log[EC50]) was 1 µM in each case.

As to `CC[C@H](C)[C@@H]1NC(=O)[C@H](Cc2ccc(O)cc2)NC(=O)[C@@H](N)CSSC[C@@H](C(=O)N2CCC[C@H]2C(=O)N[C@@H](CC(C)C)C(=O)NCC(N)=O)NC(=O)[C@H](CC(N)=O)NC(=O)[C@H](CCC(N)=O)NC1=O` [Oxytocin, reference compound], the “activation of apVTR1 (IP1 response), in words” value in test [1] was “weak activation effect”. Also, the EC50 in test [1] (apVTR1 EC50) was 16 µM; in test [1] (apVTR1 log[EC50]), 15.8 µM; in test [2] (setting [7]), 3.6 µM. The “activation of Class-A GPCR 3 (IP1 response), in words” value in test [3] (setting [5]) is “do not affect; also recorded: none of the four peptides had any effects”. Also, the “activation of apVTR2 (IP1 response), in words” value in test [2] (setting [6]) is reported as “weak activation effect”. For the same compound, in test [2] (setting [4]), the “apVTR2 log[EC50]” value was -5.4±0.016 M.

With `CC[C@H](C)[C@@H]1NC(=O)[C@H](Cc2ccccc2)NC(=O)[C@@H](N)CSSC[C@@H](C(=O)N2CCC[C@H]2C(=O)N[C@@H](CCCCN)C(=O)NCC(N)=O)NC(=O)[C@H](C)NC(=O)[C@H](CCCNC(=N)N)NC1=O` [[Ala^5]apVT] (H-CFIRACPKG-NH2; disulfide 1-6), the EC50 in test [1] (apVTR1 EC50) was 6 µM; in test [1] (apVTR1 log[EC50]), 6.31 µM.

As for `CC(C)[C@@H]1NC(=O)[C@H](Cc2ccccc2)NC(=O)[C@@H](N)CSSC[C@@H](C(=O)N2CCC[C@H]2C(=O)N[C@H](C(=O)NCC(N)=O)[C@@H](C)O)NC(=O)[C@H](CC(N)=O)NC(=O)[C@H](CCCNC(=N)N)NC1=O` [Annetocin, reference compound] (H-CFVRNCPTG-NH2; disulfide 1-6), the results for the EC50 in test [1] (apVTR1 EC50), in test [1] (apVTR1 log[EC50]) and in test [2] (setting [7]) were 5.6 µM, 6.31 µM and 1.1 µM, respectively. For the same compound, the “activation of Class-A GPCR 3 (IP1 response), in words” value in test [3] (setting [5]) is “do not affect; also recorded: none of the four peptides had any effects”. The “apVTR2 log[EC50]” value in test [2] (setting [4]) is listed as -6.0±0.20 M.

In the case of `CC[C@H](C)[C@H](NC(=O)[C@H](Cc1ccccc1)NC(=O)[C@@H](N)CSCNC(C)=O)C(=O)N[C@@H](CCCNC(=N)N)C(=O)N[C@@H](CC(N)=O)C(=O)N[C@@H](CS)C(=O)N1CCC[C@H]1C(=O)N[C@@H](CCCCN)C(=O)NCC(N)=O` [[Cys(Acm)^1]apVT] (H-C(Acm)FIRNCPKG-NH2; N-terminus assumed), the results for the EC50 in test [1] (apVTR1 EC50), in test [1] (apVTR1 log[EC50]) and in test [2] were 2.9 µM, 3.16 µM and 7.8 µM, respectively. In test [2] (setting [4]), the “apVTR2 log[EC50]” value was -5.1±0.21 M.

Turning to `CC[C@H](C)[C@@H]1NC(=O)[C@H](Cc2ccccc2)NC(=O)[C@@H](N)CSSC[C@@H](C(=O)N2CCC[C@H]2C(=O)N[C@@H](C)C(=O)NCC(N)=O)NC(=O)[C@H](CC(N)=O)NC(=O)[C@H](CCCNC(=N)N)NC1=O` [[Ala^8]apVT] (H-CFIRNCPAG-NH2; disulfide 1-6), the EC50 in test [1] (apVTR1 EC50) was 1.5 µM; in test [1] (apVTR1 log[EC50]), 1.58 µM.

Consider `CC[C@H](C)[C@H](NC(=O)[C@H](Cc1ccccc1)NC(=O)[C@@H](N)CS)C(=O)N[C@@H](CCCNC(=N)N)C(=O)N[C@@H](CC(N)=O)C(=O)N[C@@H](CS)C(=O)N1CCC[C@H]1C(=O)N[C@@H](CCCCN)C(=O)NCC(=O)O` [apVT'-OH] (H-CFIRNCPKG-OH; N-terminus assumed), for which the figures for the EC50 in test [1] (apVTR1 EC50), in test [1] (apVTR1 log[EC50]) and in test [2] were 2.2 µM, 2 µM and 2.2 µM, respectively. Also, in test [2] (setting [4]), the “apVTR2 log[EC50]” value is given as -5.6±0.18 M.

As for `CC[C@H](C)[C@@H]1NC(=O)[C@H](Cc2ccccc2)NC(=O)[C@@H](N)CSSC[C@@H](C(=O)N[C@@H](C)C(=O)N[C@@H](CCCCN)C(=O)NCC(N)=O)NC(=O)[C@H](CC(N)=O)NC(=O)[C@H](CCCNC(=N)N)NC1=O` [[Ala^7]apVT] (H-CFIRNCAKG-NH2; disulfide 1-6), the EC50 in test [1] (apVTR1 EC50) was 1.1 µM; in test [1] (apVTR1 log[EC50]), 1 µM.

In the case of `CC[C@H](C)[C@@H]1NC(=O)[C@H](Cc2ccccc2)NC(=O)[C@@H](N)CSSC[C@@H](C(=O)N2CCC[C@H]2C(=O)N[C@@H](CCCCN)C(=O)NCC(=O)O)NC(=O)[C@H](CC(N)=O)NC(=O)[C@H](CCCNC(=N)N)NC1=O` [apVT-OH] (H-CFIRNCPKG-OH; disulfide 1-6; N-terminus assumed), the EC50 was 3.5 µM in test [1] (apVTR1 EC50), 3.16 µM in test [1] (apVTR1 log[EC50]) and 1 µM in test [2]. In test [2] (setting [4]), the “apVTR2 log[EC50]” value is -6.0±0.06 M.

On to Urotensin II, for which, in test [3] (setting [5]), the “activation of Class-A GPCR 3 (IP1 response), in words” value was “not responsive to any of these”.

Turning to `CC[C@H](C)[C@@H]1NC(=O)[C@H](Cc2ccccc2)NC(=O)[C@@H](N)CSSC[C@@H](C(=O)N2CCC[C@H]2C(=O)N[C@@H](CCCCN)C(=O)NCC(N)=O)NC(=O)[C@H](CC(N)=O)NC(=O)[C@H](CCCNC(=N)N)NC1=O` [apVT, Aplysia vasotocin] (H-CFIRNCPKG-NH2; disulfide 1-6; N-terminus assumed), in test [1], the “apVTR1 EC50” value worked out at 0.065 µM. The EC50 in test [1] (apVTR1 EC50) was 0.07 µM; in test [2], 0.077 µM and 0.07 µM. In addition, the “screening of apVTR1 activation (IP1 response), in words” value in test [1] (setting [8]) is “responded”. The “apVTR1 log[EC50]” value in test [1] is on record as -7.2±0.036 M; in test [1] (listed as apVT'), -7.2±0.07 M. For the same compound, the “activation of Class-A GPCR 3 (IP1 response), in words” value in test [3] is listed as “no response; also recorded: not responsive”. In test [2] (setting [8]), the “screening of apVTR2 activation (IP1 response), in words” value is “responded”. The “apVTR2 log[EC50]” value in test [2] (setting [4]) is listed as -7.1±0.18 M; in test [2] (n = 3, CHO-K1 cells, without promiscuous Gαq, listed as apVT'), -7.2±0.15 M.

`C[C@@H]1NC(=O)[C@H](Cc2ccccc2)NC(=O)[C@@H](N)CSSC[C@@H](C(=O)N2CCC[C@H]2C(=O)N[C@@H](CCCCN)C(=O)NCC(N)=O)NC(=O)[C@H](CC(N)=O)NC(=O)[C@H](CCCNC(=N)N)NC1=O` [[Ala^3]apVT] (H-CFARNCPKG-NH2; disulfide 1-6): the EC50 in test [1] (apVTR1 EC50) is 30 µM; in test [1] (apVTR1 log[EC50]), 31.6 µM.

Regarding AstC, in test [3] (setting [5]), the “activation of Class-A GPCR 3 (IP1 response), in words” value was “not responsive to any of these”.

For Vasopressin [reference compound], in test [1], the “activation of apVTR1 (IP1 response), in words” value is on record as “no effects”. The “activation of Class-A GPCR 3 (IP1 response), in words” value in test [3] (setting [5]) was “none of the four peptides had any effects”; in test [3] (co-transfected with promiscuous Gαq (Gα16), 10^-5 M vs 10^-10 M, listed as Vasopressin), “do not affect”. Besides, the “activation of apVTR2 (IP1 response), in words” value in test [2] (setting [6]) is given as “no effects”.

`CC[C@H](C)[C@H](NC(=O)[C@H](Cc1ccccc1)NC(=O)[C@@H](N)CS)C(=O)N[C@@H](CCCNC(=N)N)C(=O)N[C@@H](CC(N)=O)C(=O)N[C@@H](CSCNC(C)=O)C(=O)N1CCC[C@H]1C(=O)N[C@@H](CCCCN)C(=O)NCC(N)=O` [[Cys(Acm)^6]apVT] (H-CFIRNC(Acm)PKG-NH2; N-terminus assumed): the EC50 in test [1] (apVTR1 EC50) was 1.5 µM; in test [1] (apVTR1 log[EC50]), 1.58 µM; in test [2], 7.8 µM. The “apVTR2 log[EC50]” value in test [2] (setting [4]) is -5.1±0.21 M.
